Test systems include SF-268 CNS; DU-145 prostate; HCC-2998 colon; SK-MEL-28 melanoma; IGROV1 ovarian; MDA-MB-231 breast; UACC-62 melanoma; CCRF-CEM leukemia; OVCAR-4 ovarian; NCI-H23 lung.
Common to all, as to test: growth of human tumour cells (NCI), 48 h

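Cultured in 96-well plates, cells were exposed to test compound for 48 hours across five concentrations. Abbreviation: GI50, concentration required for 50% inhibition of growth. The concentration for full growth arrest is given as TGI.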 Some results are limits rather than exact numbers.

`COC(=O)[C@@H](C)C[C@H](Cc1ccccc1)NC(=O)c1nc([C@@H](C[C@H](C(C)C)N(C)C(=O)[C@@H](NC(=O)[C@H]2CCCN2C)C(C)C)OC(C)=O)sc1C`: the GI50 is 0.00712 µM in the assay with SF-268 CNS; less than 0.0025 µM with DU-145 prostate; less than 0.0025 µM with HCC-2998 colon; 0.0165 µM in the assay on SK-MEL-28 melanoma; less than 0.0025 µM with IGROV1 ovarian; 0.00613 µM in the assay on MDA-MB-231 breast. The GI50 was less than 0.0025 µM in the assay on UACC-62 melanoma, less than 0.0025 µM in the assay on CCRF-CEM leukemia, 0.542 µM in the assay on OVCAR-4 ovarian and 0.00806 µM in the assay with NCI-H23 lung. The TGI is more than 25 µM with SF-268 CNS; more than 25 µM in the assay on DU-145 prostate; more than 25 µM with HCC-2998 colon; more than 25 µM in the assay on SK-MEL-28 melanoma; more than 25 µM with IGROV1 ovarian; 4.64 µM with MDA-MB-231 breast. Also, the TGI in the assay on UACC-62 melanoma, with CCRF-CEM leukemia, in the assay on OVCAR-4 ovarian and with NCI-H23 lung was more than 25 µM in each case.

`N#Cc1c(O)c2c(c(O)c1C#N)C(=O)c1ccccc1C2=O`: the GI50 with SF-268 CNS is 2.8 µM; in the assay on DU-145 prostate, 1.19 µM; in the assay with HCC-2998 colon it was 2.51 µM; in the assay with SK-MEL-28 melanoma, 1.06 µM; with IGROV1 ovarian, 2.89 µM; with MDA-MB-231 breast it was 2.01 µM. Further, the GI50 was 1.05 µM with UACC-62 melanoma, 2.23 µM with CCRF-CEM leukemia, 1.43 µM in the assay on OVCAR-4 ovarian and 0.621 µM in the assay on NCI-H23 lung. The TGI was 16 µM in the assay with SF-268 CNS; 2.5 µM in the assay with DU-145 prostate; 8.59 µM with HCC-2998 colon; 3.58 µM with SK-MEL-28 melanoma; 10.8 µM with IGROV1 ovarian; 9.55 µM with MDA-MB-231 breast. For the same compound, the TGI with UACC-62 melanoma amounted to 2.85 µM; with CCRF-CEM leukemia, 5.82 µM; in the assay with OVCAR-4 ovarian it was 3.79 µM; in the assay on NCI-H23 lung, 2.7 µM.

With `COc1ccc(-n2cc(-c3ccc(OC)c(OC)c3)[nH]c2=S)cc1Cl`, the GI50 is 58.7 µM in the assay on SF-268 CNS; more than 100 µM with DU-145 prostate; more than 100 µM in the assay on HCC-2998 colon; more than 100 µM in the assay on SK-MEL-28 melanoma; more than 100 µM in the assay on IGROV1 ovarian; 61.4 µM with MDA-MB-231 breast. For the same compound, the GI50 with UACC-62 melanoma, in the assay with CCRF-CEM leukemia, with OVCAR-4 ovarian and with NCI-H23 lung was more than 100 µM throughout. Moreover, the TGI in the assay with SF-268 CNS, in the assay on DU-145 prostate, in the assay on HCC-2998 colon, in the assay with SK-MEL-28 melanoma, in the assay with IGROV1 ovarian and in the assay on MDA-MB-231 breast was more than 100 µM throughout. For the same compound, the TGI in the assay on UACC-62 melanoma, in the assay with CCRF-CEM leukemia, with OVCAR-4 ovarian and in the assay with NCI-H23 lung was more than 100 µM in each case.

For `N#Cc1cnn2ccn(C3OC(COC(=O)c4ccccc4)C(OC(=O)c4ccccc4)C3OC(=O)c3ccccc3)c12` (stereo not given), the TGI with SF-268 CNS, in the assay on DU-145 prostate, in the assay on HCC-2998 colon, in the assay with SK-MEL-28 melanoma, in the assay with IGROV1 ovarian and in the assay with MDA-MB-231 breast was more than 21.5 µM in each case. Also, the TGI with UACC-62 melanoma, in the assay with CCRF-CEM leukemia, with OVCAR-4 ovarian and in the assay on NCI-H23 lung was more than 21.5 µM each time.

In the case of `CN(C)c1ccc2c(c1)oc(=O)c1ccccc12`, the TGI was 22.7 µM in the assay with SF-268 CNS; 23 µM in the assay on DU-145 prostate; 28.8 µM in the assay on HCC-2998 colon; 34.3 µM in the assay with SK-MEL-28 melanoma; 36.7 µM in the assay on IGROV1 ovarian; 34.4 µM in the assay on MDA-MB-231 breast. Besides, the TGI with UACC-62 melanoma was determined as 30.4 µM; with CCRF-CEM leukemia, 27.9 µM; in the assay with OVCAR-4 ovarian it was 28.2 µM; in the assay on NCI-H23 lung, 22.4 µM.

On to `ClCc1ccccc1CSc1ncnc2nc[nH]c12`, for which the GI50 in the assay on SF-268 CNS, in the assay with DU-145 prostate, in the assay on HCC-2998 colon, with SK-MEL-28 melanoma, in the assay on IGROV1 ovarian and in the assay with MDA-MB-231 breast was more than 60 µM throughout. Also, the GI50 in the assay with UACC-62 melanoma, with CCRF-CEM leukemia, in the assay on OVCAR-4 ovarian and with NCI-H23 lung was more than 60 µM throughout. Moreover, the TGI in the assay with SF-268 CNS, with DU-145 prostate, in the assay with HCC-2998 colon, with SK-MEL-28 melanoma, in the assay with IGROV1 ovarian and in the assay on MDA-MB-231 breast was more than 60 µM each time. The TGI in the assay on UACC-62 melanoma, in the assay with CCRF-CEM leukemia, with OVCAR-4 ovarian and in the assay with NCI-H23 lung was more than 60 µM each time.

As to `CC(=O)c1ccc(N(/C=C/C(=O)C(F)(F)F)CC(=O)c2ccc(Cl)c(Cl)c2)cc1`, the GI50 in the assay on SF-268 CNS was 14.2 µM; with DU-145 prostate, 19.2 µM; with HCC-2998 colon, 18.5 µM; in the assay with SK-MEL-28 melanoma it was 16.5 µM; with IGROV1 ovarian, 13.9 µM; in the assay on MDA-MB-231 breast it was 11.6 µM. Moreover, the GI50 in the assay on UACC-62 melanoma is 7.01 µM; in the assay with CCRF-CEM leukemia it was 10.4 µM; with OVCAR-4 ovarian, 14 µM; in the assay with NCI-H23 lung it was 18 µM. The TGI turned out to be 31.5 µM with SF-268 CNS; 36.1 µM with DU-145 prostate; 34.9 µM with HCC-2998 colon; 40.7 µM in the assay with SK-MEL-28 melanoma; 28.4 µM in the assay with IGROV1 ovarian; 25 µM with MDA-MB-231 breast. Moreover, the TGI was 19.8 µM with UACC-62 melanoma, 36.9 µM in the assay with CCRF-CEM leukemia, 33.4 µM with OVCAR-4 ovarian and 35.6 µM in the assay with NCI-H23 lung.

In the case of `NS(=O)(=O)c1ccc(-n2nc(-c3ccc(Br)cc3)ccc2=O)cc1`, the GI50 with SF-268 CNS, in the assay with DU-145 prostate, in the assay with HCC-2998 colon, in the assay on SK-MEL-28 melanoma, with IGROV1 ovarian and in the assay with MDA-MB-231 breast was more than 10 µM throughout. Further, the GI50 in the assay on UACC-62 melanoma, with CCRF-CEM leukemia, in the assay with OVCAR-4 ovarian and in the assay on NCI-H23 lung was more than 10 µM each time. Besides, the TGI in the assay on SF-268 CNS, in the assay on DU-145 prostate, with HCC-2998 colon, in the assay with SK-MEL-28 melanoma, with IGROV1 ovarian and in the assay with MDA-MB-231 breast was more than 10 µM each time. Moreover, the TGI in the assay with UACC-62 melanoma, in the assay on CCRF-CEM leukemia, with OVCAR-4 ovarian and in the assay on NCI-H23 lung was more than 10 µM each time.

As for `O=C(Cc1ccc(/C=C/C(=O)c2ncc[nH]2)cc1)Nc1ccc(Cl)cc1`, the GI50 in the assay with SF-268 CNS is 1.65 µM; with DU-145 prostate, 1.7 µM; in the assay on HCC-2998 colon, 3.73 µM; in the assay on SK-MEL-28 melanoma, 4.81 µM; in the assay on IGROV1 ovarian, 3.59 µM; in the assay with MDA-MB-231 breast, 4.27 µM. Moreover, the GI50 with UACC-62 melanoma is 3.94 µM; in the assay on CCRF-CEM leukemia it was 1.08 µM; in the assay with OVCAR-4 ovarian, 4.11 µM; in the assay with NCI-H23 lung it was 2.97 µM. In addition, the TGI with SF-268 CNS is more than 25 µM; with DU-145 prostate, 7.39 µM; with HCC-2998 colon, 7.48 µM; with SK-MEL-28 melanoma, 11.7 µM; in the assay with IGROV1 ovarian, 15.4 µM; with MDA-MB-231 breast it was 14.9 µM. In addition, the TGI is 9.48 µM in the assay with UACC-62 melanoma, more than 25 µM in the assay with CCRF-CEM leukemia, more than 25 µM with OVCAR-4 ovarian and 11.5 µM in the assay on NCI-H23 lung.

Turning to `O=C1c2ccccc2C(=O)c2c1ccc1[nH]c(CCl)nc21`, the GI50 in the assay on SF-268 CNS was 2.22 µM; in the assay on DU-145 prostate, 4.27 µM; in the assay on HCC-2998 colon, 3.41 µM; in the assay on SK-MEL-28 melanoma it was 6.58 µM; with IGROV1 ovarian, 2.03 µM; with MDA-MB-231 breast, 3.74 µM. For the same compound, the GI50 with UACC-62 melanoma is 2.06 µM; in the assay on CCRF-CEM leukemia it was 2.19 µM; with OVCAR-4 ovarian, 3.05 µM; in the assay with NCI-H23 lung, 1.65 µM. In addition, the TGI with SF-268 CNS was determined as 8.1 µM; with DU-145 prostate, 14.5 µM; with HCC-2998 colon, 12.7 µM; in the assay with SK-MEL-28 melanoma, 18.8 µM; in the assay with IGROV1 ovarian, 6.59 µM; in the assay on MDA-MB-231 breast it was 15.3 µM. Further, the TGI was determined as 4.99 µM with UACC-62 melanoma, 6.42 µM in the assay with CCRF-CEM leukemia, 11.2 µM in the assay on OVCAR-4 ovarian and 3.6 µM in the assay with NCI-H23 lung.

For the compound `CC1=C2[C@@H](CC1)[C@]1(C)O[C@@](C(C)C)(C[C@H]1OC(=O)[C@H](C)O)[C@H]2OC(=O)/C=C/c1ccccc1`, the GI50 in the assay on SF-268 CNS is 2.13 µM; in the assay on DU-145 prostate, 15.9 µM; in the assay on HCC-2998 colon, 13.4 µM; with SK-MEL-28 melanoma, 16.5 µM; in the assay with IGROV1 ovarian, 19.2 µM; with MDA-MB-231 breast, 15.3 µM. Besides, the GI50 with UACC-62 melanoma is 12.2 µM; with CCRF-CEM leukemia, 16.2 µM; with OVCAR-4 ovarian it was 10.3 µM; in the assay on NCI-H23 lung it was 14.3 µM. In addition, the TGI amounted to 23.1 µM in the assay with SF-268 CNS; 31.9 µM in the assay on DU-145 prostate; 28.2 µM with HCC-2998 colon; 34.3 µM in the assay on SK-MEL-28 melanoma; 49.8 µM in the assay with IGROV1 ovarian; 36.4 µM with MDA-MB-231 breast. The TGI in the assay with UACC-62 melanoma came to 27.4 µM; in the assay on CCRF-CEM leukemia, 41.9 µM; with OVCAR-4 ovarian, 24.9 µM; in the assay on NCI-H23 lung, 33.3 µM.

Source of the values: PubChem BioAssay (NCI).
